The source of these data is PubChem BioAssay AID1963843 (Molecular Pharmacology Branch, DTP, NCI, 2024).

As usually defined, the viability, T/C is the ratio of treated to control. The term IC50 denotes the midpoint of a concentration-inhibition curve.

Structures are written as SMILES. Several values for one entry are separate records, joined by “and”; a condition that tells them apart may be missing. Equal values may be shown once.

The test system of the assay is 616215-338-R-J1-PDC complex spheroid viability. The assay is described as follows: Anticancer human tumor 616215-338-R-J1-PDC patient-derived colon adenocarcinoma cell line growth inhibition [POLQ]. To be noted: for viability, T/C: stronger effect = lower value. The procedure:
Multicellular complex tumor spheroid response to Polymerase (POL) inhibitors (novobiocin, ART-558, RP6685) in combination with a variety of drugs and investigational agents in selected tumor cell lines
The POL inhibitors (novobiocin, ART-558, and RP6685) were evaluated both individually and in combination with standard of care and investigational anticancer small molecules within a complex spheroid model of solid tumors. . Complex spheroids include a stromal component modeled by human endothelial cells (HUVEC) and fibroblasts modeled by human mesenchymal stem cells (MSCs). The concentration ranges selected for each drug and investigational agent were based upon clinically achievable concentrations if the clinical Cmax of the agent was known.
Compounds. The drugs and investigational agents: novobiocin (NSC847541), ART-558 (NSC835418), RP-6685 (NSC848927), peposertib (NSC802822), ceralasertib (NSC780249), elimusertib (NSC800525), camonsertib (NSC841442), AZD-1390 (NSC803789), olaparib (NSC753686), talazoparib (NSC767125), rucaparib (NSC756644), sotorasib (NSC818433), MRTX-1133 (NSC836407), SN-38 (NSC673596), topotecan (NSC609699), epotoside (NSC141540), doxorubicin (NSC123127), gemcitabine (NSC613327), 5-fluorouracil (NSC19893), paclitaxel (NSC125973), vemurafenib (NSC761431), MSA-2 (NSC828583), SN-011 (NSC837082), adavosertib (NSC754352), prexasertib (NSC758257), carboplatin (NSC241240) and oxaliplatin (NSC266046), were obtained from the National Cancer Institute (NCI) Developmental Therapeutics Program Chemical Repository (21). The FDA-approved anticancer drug set is available from the Developmental Therapeutics Program at https://dtp.cancer.gov/organization/dscb/obtaining/. […] The stock solutions were prepared in dimethyl sulfoxide (DMSO, Sigma-Aldrich, St. Louis, MO, cat. D2650), except for the platinum compounds which were prepared in saline (Quality Biological, Gaithersburg, MD, cat. 114-055-101), at 800-fold the tested concentration and stored at -70 degrees C prior to their use. All drugs and investigational agents were tested over a range starting from a high concentration at or near the clinical Cmax and decreasing in half-log increments. If the clinical Cmax for an agent had not been determined, the highest concentration tested was 10 microM, except for SN-38, which was tested at a high concentration of 1 microM.
Cell Culture. All cells were maintained in an incubator at 37 degrees C and 5% CO2 with 95% humidity. The PDC lines were cultured according to standard operating procedures established by the NCI PDMR (https://pdmr.cancer.gov). Table 3 of the manuscript, lists the cell lines along with the number of the three cell types plated to form the mct-spheroids and media for tumor cell growth. After thawing, all PDC lines, except 997537-175-T-J1-PDC and 415267-285-R-J2-PDC, were cultured in Matrigel-coated flasks prepared with a working solution of 1X Ham's F-12 nutrient mix, without supplementation (Thermo Fisher Scientific, cat. 11765054), 100 U/mL penicillin-streptomycin (Thermo Fisher Scientific, cat. 15140122), and 2.5% Matrigel (Corning Inc., Corning, NY, cat. 354248) for the first three passages. The two PDC lines 997537-175-T-J1-PDC and 415267-285-R-J2-PDC were cultured on uncoated flasks. The 857933-349-R-J2-PDC line was cultured in 6C/Colon 1B media containing advanced DMEM/F-12 (Thermo Fisher Scientific, cat. 12634028), 10 mM HEPES (Thermo Fisher Scientific, cat. 15630080), 1X GlutaMAX supplement (Thermo Fisher Scientific, cat. 35050061), 0.1 mg/mL primocin (InvivoGen, San Diego, CA, cat. ant-pm-2), 10% defined fetal bovine serum, heat inactivated (HyClone Laboratories Inc., Logan, UT, cat. SH30070.03HI), 50% L-WRN conditioned media (ATCC, cat. CRL-3276), 1.25 mM N-Acetyl-L-cysteine (Sigma-Aldrich, cat. A9165), 10 mM nicotinamide (Sigma-Aldrich, cat. N0636), 1X B-27 supplement (Thermo Fisher Scientific, cat. 17504044), 1X N-2 supplement (Thermo Fisher Scientific, cat. […]
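Further: spheroids exposed to compounds for one week before readout.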
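Wherever viability, T/C is given: percent viability relative to DMSO vehicle wells taken as 100%.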

On to `C#Cc1c(F)ccc2cc(O)cc(-c3ncc4c(N5CC6CCC(C5)N6)nc(OCC56CCCN5CC(F)C6)nc4c3F)c12` (stereo not given), for which the viability, T/C is, setting by setting: (compound 0.0316 µM) 101% (2×) and 104%; (compound 0.1 µM) 90.4% and 90.9% and 90.6%; (compound 0.316 µM) 104% and 103% and 97.6%; (compound 1 µM) 107% and 71.8% and 104%; (compound 3.16 µM) 109% and 54.8% and 93.5%; (compound 10 µM) 72.4% and 33.1% and 66.3%. The IC50 (curve of compound) was > 10 µM and 3.54 µM.

Take `C=CC(=O)N1CCN(c2nc(=O)n(-c3c(C)ccnc3C(C)C)c3nc(-c4c(O)cccc4F)c(F)cc23)C(C)C1` (stereo not given): the viability, T/C runs as follows: (compound 0.0316 µM) 104% and 100% and 91.5%; (compound 0.1 µM) 94.8% and 103% and 100%; (compound 0.316 µM) 97.3% and 99.3% and 98.2%; (compound 1 µM) 97.3% and 97.5% and 99.1%; (compound 3.16 µM) 103% and 90.9% and 104%; (compound 10 µM) 87.7% and 66.7% and 91.4%. Further, the IC50 (curve of compound) is greater than 10 µM.

Take `CC1COCCN1c1cc(C2(O)CC3CCC(C2)O3)c2cnn(-c3ccn[nH]3)c2n1` (stereo not given): the viability, T/C was 99.2% and 95.5% and 88% (compound 0.0316 µM); 91.8% and 93% and 73.8% (compound 0.1 µM); 73.3% and 70.1% and 46.3% (compound 0.316 µM); 76.6% and 53.7% and 34.7% (compound 1 µM); 54% and 46% and 21% (compound 3.16 µM); 40.1% and 32.2% and 19.3% (compound 10 µM).

Consider `CCc1cc2c(N3CCc4c(cc(Cn5ccnc5)cc4-c4cn(C)nc4C(F)(F)F)C3=O)cc(C)nc2c(OC)n1`, for which the viability, T/C reads like this: (compound 0.0316 µM) 111% and 112% and 115%; (compound 0.1 µM) 99.7% and 102% and 100%; (compound 0.316 µM) 103% and 79.5% and 78.1%; (compound 1 µM) 98.2% and 62.6% and 69.1%; (compound 3.16 µM) 62.3% and 54.4% and 53.4%; (compound 10 µM) 51.3% and 41.3% and 39.7%. The IC50 (curve of compound) is > 10 µM and 3.64 µM and 4.13 µM.

Regarding `CCc1cc2c(N3CCc4c(cc(Cn5ccnc5)cc4-c4cn(C)nc4C(F)(F)F)C3=O)ccnc2c(OC)n1`, the viability, T/C runs as follows: (compound 0.0316 µM) 93.8% and 107% and 110%; (compound 0.1 µM) 106% and 93.5% and 101%; (compound 0.316 µM) 111% and 89.7% and 94.4%; (compound 1 µM) 107% and 75.4% and 60.1%; (compound 3.16 µM) 79.1% and 52.8% and 53.1%; (compound 10 µM) 49.8% and 47.7% and 43.4%. Under “curve of compound”, the IC50 was > 10 µM and 6.52 µM and 2.81 µM.

`COc1cc2cc(C(=O)CCC(=O)O)sc2cc1OC`: the viability, T/C was 99% and 105% and 100% (compound 0.0316 µM); 97.3% and 102% and 92.3% (compound 0.1 µM); 109% and 107% and 92.4% (compound 0.316 µM); 95.5% and 105% and 98% (compound 1 µM); 105% and 104% and 93.1% (compound 3.16 µM); 99.8% and 105% and 109% (compound 10 µM). In addition, where the note is “curve of compound”, the concentration for half-maximal inhibition (IC50) was greater than 10 µM.

Consider `O=C(Nc1ccc(O)c(NS(=O)(=O)c2ccc(F)cc2)c1)c1ccc(-c2ccccc2)cc1`, for which the viability, T/C is 104% and 110% and 106% (compound 0.0316 µM); 107% and 100% and 90.8% (compound 0.1 µM); 107% and 108% and 104% (compound 0.316 µM); 108% and 92.6% and 100% (compound 1 µM); 102% and 106% and 114% (compound 3.16 µM); 60.7% and 49.2% and 101% (compound 10 µM). Further, under “curve of compound”, the 50% inhibitory concentration (IC50) is > 10 µM and 9.86 µM.

Consider `CC[C@@]1(O)C(=O)OCc2c1cc1n(c2=O)Cc2cc3c(CN(C)C)c(O)ccc3nc2-1` + COC1C(OC(N)=O)C(O)C(Oc2ccc3c(O)c(NC(=O)c4ccc(O)c(CC=C(C)C)c4)c(=O)oc3c2C)OC1(C)C, for which the IC50 was greater than 0.1 µM (curve of first compound, second compound 0.0316 µM); greater than 0.1 µM (curve of first compound, second compound 0.1 µM); greater than 0.1 µM (curve of first compound, second compound 0.316 µM); greater than 0.1 µM (curve of first compound, second compound 1 µM); greater than 0.1 µM (curve of first compound, second compound 3.16 µM); greater than 0.1 µM (curve of first compound, second compound 10 µM). The viability, T/C (second compound 0.0316 µM, first compound 0.000316 µM) is 99.3%; the viability, T/C (second compound 0.0316 µM, first compound 0.001 µM) was 97.5%; the viability, T/C (second compound 0.0316 µM, first compound 0.00316 µM) is 104%; the viability, T/C (second compound 0.0316 µM, first compound 0.01 µM) was 97.6%; the viability, T/C (second compound 0.0316 µM, first compound 0.0316 µM) is 102%; the viability, T/C (second compound 0.0316 µM, first compound 0.1 µM) is 81.7%. Also, the viability, T/C is, setting by setting: (second compound 0.1 µM, first compound 0.000316 µM) 99.2%; (second compound 0.1 µM, first compound 0.001 µM) 112%; (second compound 0.1 µM, first compound 0.00316 µM) 99.5%; (second compound 0.1 µM, first compound 0.01 µM) 106%; (second compound 0.1 µM, first compound 0.0316 µM) 106%; (second compound 0.1 µM, first compound 0.1 µM) 78.6%. For the same compound, the viability, T/C (second compound 0.316 µM, first compound 0.000316 µM) was 103%; the viability, T/C (second compound 0.316 µM, first compound 0.001 µM) was 93.5%; the viability, T/C (second compound 0.316 µM, first compound 0.00316 µM) was 95.1%; the viability, T/C (second compound 0.316 µM, first compound 0.01 µM) was 105%; the viability, T/C (second compound 0.316 µM, first compound 0.0316 µM) is 110%; the viability, T/C (second compound 0.316 µM, first compound 0.1 µM) is 90.3%. Also, the viability, T/C is 101% (second compound 1 µM, first compound 0.000316 µM); 98.8% (second compound 1 µM, first compound 0.001 µM); 98.5% (second compound 1 µM, first compound 0.00316 µM); 101% (second compound 1 µM, first compound 0.01 µM); 101% (second compound 1 µM, first compound 0.0316 µM); 75.5% (second compound 1 µM, first compound 0.1 µM). Moreover, the viability, T/C by setting is: (second compound 3.16 µM, first compound 0.000316 µM) 95.3%; (second compound 3.16 µM, first compound 0.001 µM) 101%; (second compound 3.16 µM, first compound 0.00316 µM) 99.4%; (second compound 3.16 µM, first compound 0.01 µM) 100%; (second compound 3.16 µM, first compound 0.0316 µM) 101%; (second compound 3.16 µM, first compound 0.1 µM) 64.9%. The viability, T/C runs as follows: (second compound 10 µM, first compound 0.000316 µM) 106%; (second compound 10 µM, first compound 0.001 µM) 99.5%; (second compound 10 µM, first compound 0.00316 µM) 96.2%; (second compound 10 µM, first compound 0.01 µM) 100%; (second compound 10 µM, first compound 0.0316 µM) 93.5%; (second compound 10 µM, first compound 0.1 µM) 58.8%.
